Measurements published in patent publication US9877962B2, “Piperazinyl derivatives for the treatment of cancer” (priority 2011, dated 2018).
Where two headings read alike, the source gives them in different places.

Tests used:
[1] = Pharmacokinetic parameters in mice; assay type: in vivo, balb/c mice; conditions: mouse, balb/c mice, intravenous route, 10 mg/kg, plasma; for half-life: read-out: t½ (converted)
Protocol: The pharmacokinetic behaviour of compounds is a pre-requisite for reasonable use thereof in in vivo experimentation. The compounds were given in DMSO solution via intravenous route (IV) or oral route (PO) to balb/c mice. Blood samples were taken at times ranging from 5 minutes to 6 hours, the plasmas were collected and the concentration of the compounds in each sample was assayed by LC/MS/MS. The data obtained allowed the plotting of time-concentration curves and determination of fundamental parameters such as plasma half-life of the compound (T½), area under curve at a given time (AUCt) and the maximum concentration obtained (Cmax).

HL-60/R10 = experiment: Cytotoxicity test (ViaLight Plus cell proliferation) on HL-60/R10; assay type: cell-based, human; conditions: doxorubicin-resistant line, 72 hours' incubation, cell viability vs 0.5% DMSO control, read-out: EC50 HL60/R10; for IC50: HL-60, 72 h
Source text: (§1) The effects of the compounds of the invention on the proliferation of cancer cells were studied on different human cancer cell lines of different tissue origin (MCF-7: breast cancer, MCF-7/adr adriamycin-resistant breast cancer, HL-60: acute promyelocytic leukaemia, HL-60/R10: doxorubicin-resistant acute promyelocytic leukaemia, HT29: colon adenocarcinoma, Mia Paca2: pancreatic tumour, Panc-1: pancreatic exocrine tumour, SK-OV-3: cisplatin- and adriamycin resistant ovarian cancer). The cancer cells used for this study were incubated at 37° C. in the presence of one of the compounds of the invention added to the culture medium at different concentrations.
(§2) The cancer cell lines were obtained from ATCC (American Type Culture Collection) for MCF-7, from Hôpital de la Pitié Salpetrière for MCF-7/adr and from Oncodesign (Dijon, France) for HL-60, HL-60/R10, HT29, MiaPaCa2, Panc-1 and SK-OV-3. They were cultured in RPMI 1640 medium containing 2 mM L-Glutamine supplemented with 10% foetal calf serum (Lonza; Verviers, Belgium). All the cell lines were held in culture at 37° C. in a humid atmosphere containing 5% CO2. Cell proliferation was assessed using the ViaLight® Plus Assay Kit (Lonza; Verviers, Belgium) following the manufacturer's instructions. The cells were seeded in 96-well culture plates compatible with luminescence read-off (white plates with transparent bottom) in a proportion of 5 000 to 10 000 cells per well in 100 μl of culture medium. After a pre-incubation time of 24 hours at 37° C., the compounds of the invention dissolved in dimethylsulfoxide (DMSO) were individually added to each well in a proportion of 0.5 μl per well. After 72 hours' incubation at 37° C. in a humid atmosphere containing 5% CO2, 50 μl of lysis buffer were added to each well and 15 minutes later 100 μl of ATP measuring agent were added. The plates were read under a luminometer to evaluate cell viability. The data obtained was processed by computer to obtain the EC50 value i.e. the concentration value of each of the compounds which induces 50% cell viability compared with a control value (0.5% DMSO alone).

HT29 = experiment: Cytotoxicity test (ViaLight Plus cell proliferation) on HT29; assay type: cell-based, human; conditions: 72 hours' incubation, cell viability; for IC50: Homo sapiens, HT-29, read-out: EC50 HT29
Source text: as §1, §2

MCF-7 = experiment: Cytotoxicity test (ViaLight Plus cell proliferation) on MCF-7; assay type: cell-based, human; conditions: 72 hours' incubation, cell viability vs 0.5% DMSO control; for IC50: Homo sapiens, MCF7, 72 h, read-out: EC50 MCF-7
Source text: as §1, §2

SK-OV-3 = experiment: Cytotoxicity test (ViaLight Plus cell proliferation) on SK-OV-3; assay type: cell-based, human; conditions: cisplatin- and adriamycin resistant line, 72 hours' incubation, cell viability; for IC50: Homo sapiens, SK-OV-3, read-out: EC50 SK-OV-3
Source text: as §1, §2

MCF-7/adr = experiment: Cytotoxicity test (ViaLight Plus cell proliferation) on MCF-7/adr; assay type: cell-based, human; conditions: adriamycin-resistant line, 72 hours' incubation, cell viability vs 0.5% DMSO control; for IC50: Homo sapiens, NCI/ADR-RES, 72 h, read-out: EC50 MCF-7/adr
Source text: as §1, §2

HL-60 = experiment: Cytotoxicity test (ViaLight Plus cell proliferation) on HL-60; assay type: cell-based, human; conditions: 72 hours' incubation, cell viability vs 0.5% DMSO control; for IC50: HL-60, 72 h, read-out: EC50 HL-60
Source text: as §1, §2

Panc-1 = experiment: Cytotoxicity test (ViaLight Plus cell proliferation) on Panc-1; assay type: cell-based, human; conditions: 72 hours' incubation, cell viability; for IC50: Homo sapiens, PANC-1, read-out: EC50 Panc-1
Source text: as §1, §2

Mia PaCa2 = experiment: Cytotoxicity test (ViaLight Plus cell proliferation) on Mia PaCa2; assay type: cell-based, human; conditions: 72 hours' incubation, cell viability; for IC50: Homo sapiens, MIA PaCa-2, read-out: EC50 Mia PaCa2
Source text: as §1, §2

SMILES | EC50 (HL-60/R10) [nM] | EC50 (MCF-7) [nM] | EC50 (MCF-7/adr) [nM] | EC50 (HL-60) [nM] | IC50 (HL-60/R10; Homo sapiens) [nM] | IC50 (MCF-7) [nM] | IC50 (MCF-7/adr) [nM] | IC50 (HL-60; Homo sapiens) [nM] | also measured
Cc1cc(Oc2ccccc2)ccc1N(C(=O)CCl)C(C(=O)N1CC(C)NC(C)C1)c1cccs1.Cl (centres unmarked) |  |  |  |  |  |  |  |  | AUC(0-inf) [1]: 3840 ng·h/mL; AUC(0-t) [1]: 3290 ng·h/mL; Cmax [1]: 3800 ng/mL; half-life [1]: 2.64 h
Cc1cc(Oc2ccccc2)ccc1N(C(=O)CCl)C(C(=O)N1CCN[C@@H](C)C1)c1cccs1.Cl (some centres unmarked) |  |  |  |  |  |  |  |  | AUC(0-inf) [1]: 2060 ng·h/mL; AUC(0-t) [1]: 1680 ng·h/mL; Cmax [1]: 1420 ng/mL; half-life [1]: 2.47 h
CC(C)[C@H]1CN(C(=O)C(c2ccc(F)cc2)N(C(=O)CCl)c2ccc(Oc3ccccc3)cc2)CCN1 (single isomer, unassigned) [I-3 dia2] | 2 | 301 | 9 | 504 |  |  |  |  | IC50 (HT29): 1 nM; IC50 (SK-OV-3): 1 nM; IC50 (Panc-1): 1 nM; IC50 (Mia PaCa2): 2 nM
Cc1cc(Oc2ccccc2)ccc1N(C(=O)CCl)C(C(=O)N1CCN[C@@H](C(C)C)C1)c1ccc(F)cc1 (single isomer, unassigned) [I-7 dia2] | 26 | 1950 | 98 | 1940 |  |  |  |  | IC50 (HT29): 8 nM; IC50 (SK-OV-3): 7 nM; IC50 (Panc-1): 5 nM; IC50 (Mia PaCa2): 13 nM
Cc1cc(OC(C)C)ccc1N(C(=O)CCl)C(C(=O)N1CCN[C@@H](C(C)C)C1)c1ccc(F)cc1 (single isomer, unassigned; dia2) [I-26 dia2] | 8 | 869 | 10 | 630 |  |  |  |  | 
Cc1cc(OC(F)(F)F)ccc1N(C(=O)CCl)C(C(=O)N1CCN[C@@H](C(C)C)C1)c1ccc(F)cc1 (single isomer, unassigned; dia2) [I-27 dia2] | 18 | 430 | 34 | 1150 |  |  |  |  | 
CC(C)[C@H]1CN(C(=O)C(c2cccs2)N(C(=O)CCl)c2cccc(C(F)(F)F)c2)CCN1 (single isomer, unassigned; dia2) [I-50 dia2] | 8 |  |  | 841 |  |  |  |  | EC50 (HT29): 9 nM; EC50 (SK-OV-3): 11 nM; EC50 (Panc-1): 9 nM; EC50 (Mia PaCa2): 2200 nM
Cc1cc(Oc2ccccc2)ccc1N(C(=O)CCl)C(C(=O)N1CCN(C(=O)OC(C)(C)C)[C@@H](C)C1)c1ccc(F)cc1 (some centres unmarked) [Example I-9] |  |  |  |  | 99 | 2500 | 108 | 771 | 
Cc1cc(Oc2ccccc2)ccc1N(C(=O)CCl)C(C(=O)N1C[C@@H](C)N(C(=O)OC(C)(C)C)[C@@H](C)C1)c1ccc(F)cc1 (some centres unmarked) [Example I-10] |  |  |  |  | 131 | 2500 | 151 | 641 | 
Cc1cc(Oc2ccccc2)ccc1N(C(=O)CCl)C(C(=O)N1CCN(C(=O)OC(C)(C)C)[C@H](C)C1)c1ccc(F)cc1 (some centres unmarked) [Example I-11] |  |  |  |  | 68 | 2500 | 102 | 939 | 
Cc1cc(Oc2ccccc2)ccc1N(C(=O)CCl)C(C(=O)N1CCN[C@@H](C)C1)c1ccc(F)cc1 (some centres unmarked) [Example I-12] |  |  |  |  | 82 | 1790 | 421 | 2320 | EC50 (HL-60/R10; Homo sapiens, HL-60): 82 nM; EC50 (HL-60; Homo sapiens, HL-60): 2320 nM
Cc1cc(Oc2ccccc2)ccc1N(C(=O)CCl)C(C(=O)N1CCN[C@H](C)C1)c1ccc(F)cc1 (some centres unmarked) [Example I-13] |  |  |  |  | 88 | 2500 | 532 | 1990 | EC50 (HL-60/R10; Homo sapiens, HL-60): 88 nM; EC50 (HL-60; Homo sapiens, HL-60): 1990 nM
Cc1cc(Oc2ccccc2)ccc1N(C(=O)CCl)C(C(=O)N1C[C@@H](C)N[C@@H](C)C1)c1ccc(F)cc1 (some centres unmarked) [Example I-14] |  |  |  |  | 95 | 2500 | 232 | 1850 | EC50 (HL-60/R10; Homo sapiens, HL-60): 95 nM; EC50 (HL-60; Homo sapiens, HL-60): 1850 nM
